Values of other authors as cited in patent publication US20220023238A1, “Process of Manufacturing a Stable, Ready to Use Infusion Bag for an Oxidation Sensitive Formulation” (InnoPharma, Inc., priority 2016, published 2022).

Key:
[1] = six adult volunteers, intravenous vs oral
[2] = intravenous, therapeutic dosing up to 4,000 mg daily

mean intravenous Cmax compared to oral route [1]: two
SMILES: CC(=O)Nc1ccc(O)cc1 [acetaminophen, N-(4-hydroxy-phenyl)acetamide]
hepatotoxicity [2]: rarely associated with hepatotoxicity
